According to PubChem BioAssay (NCI):
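Assay format: 96-well plates, 48-hour exposure. Here, GI50 denotes the concentration required for 50% inhibition of growth. Definition used: TGI = concentration required for complete inhibition of growth.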

Key:
Assay in all cases: DTP human tumour cell line panel, 48 h
IGROV1 ovarian = test system: IGROV1 ovarian
NCI-H226 lung = test system: NCI-H226 lung
SF-539 CNS = test system: SF-539 CNS
UACC-62 melanoma = test system: UACC-62 melanoma
RPMI-8226 leukemia = test system: RPMI-8226 leukemia
NCI-H23 lung = test system: NCI-H23 lung
OVCAR-4 ovarian = test system: OVCAR-4 ovarian
SNB-19 CNS = test system: SNB-19 CNS
OVCAR-3 ovarian = test system: OVCAR-3 ovarian
CAKI-1 renal = test system: CAKI-1 renal
NCI-H522 lung = test system: NCI-H522 lung
SK-MEL-28 melanoma = test system: SK-MEL-28 melanoma
PC-3 prostate = test system: PC-3 prostate
MALME-3M melanoma = test system: MALME-3M melanoma
MDA-MB-435 = test system: MDA-MB-435
HL-60(TB) leukemia = test system: HL-60(TB) leukemia
SK-MEL-2 melanoma = test system: SK-MEL-2 melanoma
HT29 colon = test system: HT29 colon
CCRF-CEM leukemia = test system: CCRF-CEM leukemia
BT-549 breast = test system: BT-549 breast
OVCAR-5 ovarian = test system: OVCAR-5 ovarian
HOP-62 NSCLC = test system: HOP-62 NSCLC
NCI/ADR-RES ovarian = test system: NCI/ADR-RES ovarian
SK-OV-3 ovarian = test system: SK-OV-3 ovarian
A498 renal = test system: A498 renal
RXF 393 renal = test system: RXF 393 renal
K-562 leukemia = test system: K-562 leukemia
OVCAR-8 ovarian = test system: OVCAR-8 ovarian
HCT-116 colon = test system: HCT-116 colon
KM12 colon = test system: KM12 colon
HS 578T breast = test system: HS 578T breast
SF-268 CNS = test system: SF-268 CNS
SF-295 CNS = test system: SF-295 CNS
MOLT-4 leukemia = test system: MOLT-4 leukemia
HCC-2998 colon = test system: HCC-2998 colon
T-47D breast = test system: T-47D breast
COLO 205 colon = test system: COLO 205 colon
UO-31 renal = test system: UO-31 renal
EKVX NSCLC = test system: EKVX NSCLC
NCI-H460 lung = test system: NCI-H460 lung
ACHN renal = test system: ACHN renal
MCF7 breast = test system: MCF7 breast
HCT-15 colon = test system: HCT-15 colon
A549 NSCLC = test system: A549 NSCLC
TK-10 renal = test system: TK-10 renal
UACC-257 melanoma = test system: UACC-257 melanoma
SK-MEL-5 melanoma = test system: SK-MEL-5 melanoma
DU-145 prostate = test system: DU-145 prostate
M14 melanoma = test system: M14 melanoma
HOP-92 NSCLC = test system: HOP-92 NSCLC
786-0 renal = test system: 786-0 renal
LOX IMVI melanoma = test system: LOX IMVI melanoma
SNB-75 CNS = test system: SNB-75 CNS
MDA-MB-231 breast = test system: MDA-MB-231 breast
SW-620 colon = test system: SW-620 colon
SN12C renal = test system: SN12C renal
SR leukemia = test system: SR leukemia
U251 CNS = test system: U251 CNS

For `C#C[C@]1(O)CC[C@H]2[C@@H]3CC=C4c5sc(Nc6cccc(Cl)n6)nc5CC[C@]4(C)[C@H]3CC[C@@]21C`, the GI50 (IGROV1 ovarian) was 1.61 µM, the TGI (IGROV1 ovarian) was 4.47 µM and the GI50 (NCI-H226 lung) was 1.6 µM. For the same compound, the TGI (NCI-H226 lung) was 4.13 µM, the GI50 (SF-539 CNS) was 0.204 µM and the TGI (SF-539 CNS) was 0.636 µM. It also gave a GI50 (UACC-62 melanoma) of 0.389 µM, a TGI (UACC-62 melanoma) of 1.5 µM and a GI50 (RPMI-8226 leukemia) of 0.208 µM. It also gave a TGI (RPMI-8226 leukemia) of 0.618 µM, a GI50 (NCI-H23 lung) of 1.61 µM and a TGI (NCI-H23 lung) of 4.77 µM. The GI50 (OVCAR-4 ovarian) was 2.11 µM, the TGI (OVCAR-4 ovarian) was 8.6 µM and the GI50 (SNB-19 CNS) was 1.17 µM. The TGI (SNB-19 CNS) was 2.82 µM, the GI50 (OVCAR-3 ovarian) was 1.45 µM and the TGI (OVCAR-3 ovarian) was 3.13 µM. For the same compound, the GI50 (CAKI-1 renal) was 0.819 µM, the TGI (CAKI-1 renal) was 2.45 µM and the GI50 (NCI-H522 lung) was 1.71 µM. It also gave a TGI (NCI-H522 lung) of 3.61 µM, a GI50 (SK-MEL-28 melanoma) of 0.226 µM and a TGI (SK-MEL-28 melanoma) of 0.597 µM. For the same compound, the GI50 (PC-3 prostate) was 0.46 µM, the TGI (PC-3 prostate) was 3.11 µM and the GI50 (MALME-3M melanoma) was 1.06 µM. The TGI (MALME-3M melanoma) was 2.62 µM, the GI50 (MDA-MB-435) was 1.01 µM and the TGI (MDA-MB-435) was 2.73 µM. For the same compound, the GI50 (HL-60(TB) leukemia) was 0.335 µM, the TGI (HL-60(TB) leukemia) was 1.57 µM and the GI50 (SK-MEL-2 melanoma) was 1.19 µM. The TGI (SK-MEL-2 melanoma) was 3.34 µM, the GI50 (HT29 colon) was 1.43 µM and the TGI (HT29 colon) was 3.6 µM. The GI50 (CCRF-CEM leukemia) was 0.43 µM, the TGI (CCRF-CEM leukemia) was > 21.1 µM and the GI50 (BT-549 breast) was 0.903 µM. For the same compound, the TGI (BT-549 breast) was 2.36 µM, the GI50 (OVCAR-5 ovarian) was 1.56 µM and the TGI (OVCAR-5 ovarian) was 3.35 µM. It also gave a GI50 (HOP-62 NSCLC) of 0.796 µM, a TGI (HOP-62 NSCLC) of 2.23 µM and a GI50 (NCI/ADR-RES ovarian) of 1.82 µM. For the same compound, the TGI (NCI/ADR-RES ovarian) was 5.57 µM, the GI50 (SK-OV-3 ovarian) was 0.867 µM and the TGI (SK-OV-3 ovarian) was 2.71 µM. For the same compound, the GI50 (A498 renal) was 0.897 µM, the TGI (A498 renal) was 2.25 µM and the GI50 (RXF 393 renal) was 0.122 µM. The TGI (RXF 393 renal) was 0.349 µM, the GI50 (K-562 leukemia) was 0.327 µM and the TGI (K-562 leukemia) was 1.71 µM. The GI50 (OVCAR-8 ovarian) was 1.46 µM, the TGI (OVCAR-8 ovarian) was 3.63 µM and the GI50 (HCT-116 colon) was 0.565 µM. For the same compound, the TGI (HCT-116 colon) was 1.92 µM, the GI50 (KM12 colon) was 1.25 µM and the TGI (KM12 colon) was 3.15 µM. For the same compound, the GI50 (HS 578T breast) was 0.338 µM, the TGI (HS 578T breast) was 1.55 µM and the GI50 (SF-268 CNS) was 1.54 µM. The TGI (SF-268 CNS) was 4.65 µM, the GI50 (SF-295 CNS) was 0.205 µM and the TGI (SF-295 CNS) was 0.529 µM. For the same compound, the GI50 (MOLT-4 leukemia) was 0.301 µM, the TGI (MOLT-4 leukemia) was 1.17 µM and the GI50 (HCC-2998 colon) was 1.88 µM. For the same compound, the TGI (HCC-2998 colon) was 4.1 µM, the GI50 (T-47D breast) was 1.84 µM and the TGI (T-47D breast) was 5.31 µM. The GI50 (COLO 205 colon) was 1.69 µM, the TGI (COLO 205 colon) was 3.4 µM and the GI50 (UO-31 renal) was 0.576 µM. The TGI (UO-31 renal) was 1.87 µM, the GI50 (EKVX NSCLC) was 1.29 µM and the TGI (EKVX NSCLC) was 6.74 µM. For the same compound, the GI50 (NCI-H460 lung) was 0.672 µM, the TGI (NCI-H460 lung) was 1.93 µM and the GI50 (ACHN renal) was 0.856 µM. For the same compound, the TGI (ACHN renal) was 2.93 µM, the GI50 (MCF7 breast) was 0.55 µM and the TGI (MCF7 breast) was 2.4 µM. For the same compound, the GI50 (HCT-15 colon) was 0.672 µM, the TGI (HCT-15 colon) was 2.44 µM and the GI50 (A549 NSCLC) was 1.2 µM. It also gave a TGI (A549 NSCLC) of 3.55 µM, a GI50 (TK-10 renal) of 1.79 µM and a TGI (TK-10 renal) of 4.06 µM. It also gave a GI50 (UACC-257 melanoma) of 0.491 µM, a TGI (UACC-257 melanoma) of 1.82 µM and a GI50 (SK-MEL-5 melanoma) of 1.65 µM. The TGI (SK-MEL-5 melanoma) was 3.12 µM, the GI50 (DU-145 prostate) was 2.17 µM and the TGI (DU-145 prostate) was 9.2 µM. For the same compound, the GI50 (M14 melanoma) was 0.491 µM, the TGI (M14 melanoma) was 1.78 µM and the GI50 (HOP-92 NSCLC) was 1.2 µM. The TGI (HOP-92 NSCLC) was 2.66 µM, the GI50 (786-0 renal) was 0.226 µM and the TGI (786-0 renal) was 0.61 µM. It also gave a GI50 (LOX IMVI melanoma) of 0.705 µM, a TGI (LOX IMVI melanoma) of 1.98 µM and a GI50 (SNB-75 CNS) of 0.815 µM. It also gave a TGI (SNB-75 CNS) of 6.54 µM, a GI50 (MDA-MB-231 breast) of 1.06 µM and a TGI (MDA-MB-231 breast) of 2.69 µM. It also gave a GI50 (SW-620 colon) of 1.19 µM, a TGI (SW-620 colon) of 2.57 µM and a GI50 (SN12C renal) of 1.6 µM. It also gave a TGI (SN12C renal) of 3.38 µM, a GI50 (SR leukemia) of 0.273 µM and a TGI (SR leukemia) of 1.02 µM. For the same compound, the GI50 (U251 CNS) was 0.428 µM and the TGI (U251 CNS) was 2.05 µM.
